Results reported in US20110166121A1 (LG LIFE SCIENCES LTD., priority 2008, published 2011).

Experiments:
[1] = tested on: Human platelet aggregation caused by ADP; test: Inhibition of ADP-induced platelet aggregation (Mimic-human PRP); assay type: cell-based; details: 20 μM ADP, human platelet concentrate diluted with PPP, absorption at 595 nm
Summary of the method: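 Ki came from non-linear sigmoidal fits of inhibition, measured as the 3-min rise in absorbance at 595 nm after 20 μM ADP, relative to 0/20 μM ADP controls. Platelets (3–4×10^8/mL in PPP-diluted human PRP) were exposed to 0.01–30 μM compound for 20 min at room temperature beforehand.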

[2] = target: T1, Human P2Y12 receptor (Homo sapiens, UniProt Q9H244); test: Human P2Y12 receptor cell membrane binding assay with [3H] 2-Mes-ADP; details: 1 nM [3H] 2-Mes-ADP, membranes of HEK cells expressing P2Y12 receptor; read-out: Binding activity (IC50)
T1 construct: expressed in transfected cells; host or cells: HEK cells
T1 sequence (Q9H244 whole entry): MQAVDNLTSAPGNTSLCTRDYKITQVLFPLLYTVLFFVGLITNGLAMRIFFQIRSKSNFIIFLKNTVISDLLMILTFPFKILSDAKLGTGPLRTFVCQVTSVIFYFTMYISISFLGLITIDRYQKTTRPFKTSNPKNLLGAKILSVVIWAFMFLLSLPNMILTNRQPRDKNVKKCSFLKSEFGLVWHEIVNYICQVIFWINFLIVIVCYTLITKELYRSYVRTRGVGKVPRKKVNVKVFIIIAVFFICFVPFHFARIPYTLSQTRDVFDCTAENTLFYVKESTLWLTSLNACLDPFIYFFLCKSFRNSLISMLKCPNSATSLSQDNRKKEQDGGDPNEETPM
Summary of the method: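 Competition binding used 1 nM [3H]2-MeS-ADP on P2Y12-expressing HEK cell membranes for 1 h at room temperature, followed by filtration and scintillation counting.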

| SMILES | Ki [1] [nM] | IC50 [2] [nM] |
| --- | --- | --- |
| CCCc1cc2c(N3CCn4c(nnc4C(F)(F)F)C3)nc(-c3nnc(-c4ccccc4)o3)nc2s1 [Example 4-33, 7-[2-(5-Phenyl-[1,3,4]oxadiazol-2-yl)-6-propyl-thieno[2,3-d]pyrimidin-4-yl]-3-trifluoromethyl-5,6,7,8-tetrahydro-[1,2,4]triazolo[4,3-a]pyrazine] | 100 | 75 |
| CCCc1cc2c(N3CCn4c(nnc4C(F)(F)F)C3)nc(NCc3ccccc3)nc2s1 [Example 1-32, Benzyl-[6-propyl-4-(3-trifluoromethyl-5,6-dihydro-8H-[1,2,4]triazolo[4,3-a]pyrazin-7-yl)-thieno[2,3-d]pyrimidin-2-yl]-amine] | > 4000 | 95 |
| CCCc1cc2c(N3CCn4c(nnc4C(F)(F)F)C3)nc(N3CC(OC(C)=O)C3)nc2s1 [Example 1-84, Acetic Acid 1-[6-propyl-4-(3-trifluoromethyl-5,6-dihydro-8H-[1,2,4]triazolo[4,3-a]pyrazin-7-yl)-thieno[2,3-d]pyrimidin-2-yl]-azetidin-3-yl ester] | 73 | 160 |
| CCCc1cc2c(N3CCn4c(nnc4C(F)(F)F)C3)nc(OCC(O)CO)nc2s1 (stereo not drawn) [Example 3-1, 3-[6-Propyl-4-(3-trifluoromethyl-5,6-dihydro-8H-[1,2,4]triazolo[4,3-a]pyrazin-7-yl)-thieno[2,3-d]pyrimidin-2-yloxy]-propane-1,2-diol] | 31 | 140 |
| CCCc1cc2c(N3CCn4c(nnc4C(F)(F)F)C3)nc(OCc3ccncc3)nc2s1 [Example 3-25, 7-[6-Propyl-2-(pyridin-4-ylmethoxy)-thieno[2,3-d]pyrimidin-4-yl]-3-trifluoromethyl-5,6,7,8-tetrahydro-[1,2,4]triazolo[4,3-a]pyrazine] | 930 | 170 |
| CCCc1cc2c(N3CCn4c(nnc4C(F)(F)F)C3)nc(OC3CCOC3)nc2s1 (stereo not drawn) [Example 3-5, 7-[6-Propyl-2-(tetrahydro-furan-3-yloxy)-thieno[2,3-d]pyrimidin-4-yl]-3-trifluoromethyl-5,6,7,8-tetrahydro-[1,2,4]triazolo[4,3-a]pyrazine] | 26 | 91 |
| CCCc1cc2c(N3CCn4c(nnc4C(F)(F)F)C3)nc(OCCNC(=O)COC)nc2s1 [Example 3-63, 2-Methoxy-N-{2-[6-propyl-4-(3-trifluoromethyl-5,6-dihydro-8H-[1,2,4]triazolo[4,3-a]pyrazin-7-yl)-thieno[2,3-d]pyrimidin-2-yloxy]-ethyl}-acetamide] | 7 | 43 |
| CCCc1cc2c(N3CCn4c(nnc4C(F)(F)F)C3)nc(N3CC(O)C3)nc2s1 [Example 1-85, 1-[6-Propyl-4-(3-trifluoromethyl-5,6-dihydro-8H-[1,2,4]triazolo[4,3-a]pyrazin-7-yl)-thieno[2,3-d]pyrimidin-2-yl]-azetidin-3-ol] | 14 | 96 |
| CCCc1cc2c(N3CCn4c(nnc4C(F)(F)F)C3)nc(N3CC[C@H](NS(C)(=O)=O)C3)nc2s1 [Example 1-113, N-{(S)-1-[6-Propyl-4-(3-trifluoromethyl-5,6-dihydro-8H-[1,2,4]triazolo[4,3-a]pyrazin-7-yl)-thieno[2,3-d]pyrimidin-2-yl]-pyrrolidin-3-yl}-methanesulfonamide] | 36 | 32 |
| CCCc1cc2c(N3CCn4c(nnc4C(F)(F)F)C3)nc(CC(=O)OCC)nc2s1 [Example 4-53, [6-Propyl-4-(3-trifluoromethyl-5,6-dihydro-8H-[1,2,4]triazolo[4,3-a]pyrazin-7-yl)thieno[2,3-d]pyrimidin-2-yl]acetic acid ethyl ester] | 5250 | 300 |
| CCCc1cc2c(N3CCn4c(nnc4C(F)(F)F)C3)nc(N3CCN(CC4CCCC4)CC3)nc2s1 [Example 1-41, 7-[2-(4-Cyclopentylmethyl-piperazin-1-yl)-6-propyl-thieno[2,3-d]pyrimidin-4-yl]-3-trifluoromethyl-5,6,7,8-tetrahydro-[1,2,4]triazolo[4,3-a]pyrazine] | 1600 | 536 |
| CCCc1cc2c(N3CCn4c(nnc4C(F)(F)F)C3)nc(N3CCN(C)CC3)nc2s1 [Example 1-3, 7-[2-(4-Methyl-piperazin-1-yl)-6-propyl-thieno[2,3-d]pyrimidin-4-yl]-3-trifluoromethyl-5,6,7,8-tetrahydro-[1,2,4]triazolo[4,3-a]pyrazine] | 164 | 92 |
| CCCc1cc2c(N3CCn4c(nnc4C(F)(F)F)C3)nc(NCCC(=O)OCC)nc2s1 [Example 1-43, 3-[6-Propyl-4-(3-trifluoromethyl-5,6-dihydro-8H-[1,2,4]triazolo[4,3-a]pyrazin-7-yl)-thieno[2,3-d]pyrimidin-2-ylamino]-propionic acid ethyl ester] | 670 | 134 |
| CCCc1cc2c(N3CCn4c(nnc4C(F)(F)C(F)(F)F)C3)nc(N3CCNC(=O)C3)nc2s1 [Example 6-4, 4-[4-(3-Pentafluoroethyl-5,6-dihydro-8H-[1,2,4]triazolo[4,3-a]pyrazin-7-yl)-6-propyl-thieno[2,3-d]pyrimidin-2-yl]-piperazin-2-one] | 308 | 128 |
| CCCc1cc2c(N3CCn4c(nnc4C(F)(F)F)C3)nc(-c3nc(CCO)cs3)nc2s1 [Example 4-59, 2-{2-[6-Propyl-4-(3-trifluoromethyl-5,6-dihydro-8H-[1,2,4]triazolo[4,3-a]pyrazin-7-yl)-thieno[2,3-d]pyrimidin-2-yl]-thiazol-4-yl}-ethanol] | 8.4 | 40 |
| CCCc1cc2c(N3CCn4c(nnc4C(F)(F)C(F)(F)F)C3)nc(OCCO)nc2s1 [Example 6-9, 2-[4-(3-Pentafluoroethyl-5,6-dihydro-8H-[1,2,4]triazolo[4,3-a]pyrazin-7-yl)-6-propyl-thieno[2,3-d]pyrimidin-2-yloxy]-ethanol] | 30 | 120 |
| CC(C)c1cc2c(N3CCn4c(nnc4C(F)(F)F)C3)nc(N3CCNC(=O)C3)nc2s1 [Example 2-12, 4-[6-isopropyl-4-(3-trifluoromethyl-5,6-dihydro-8H-[1,2,4]triazolo[4,3-a]pyrazin-7-yl)-thieno[2,3-d]pyrimidin-2-yl]-piperazin-2-one] | 2900 | 460 |
| CCCc1cc2c(N3CCn4c(nnc4C(F)(F)F)C3)nc(OCC(=O)O)nc2s1 [Example 3-9, [6-Propyl-4-(3-trifluoromethyl-5,6-dihydro-8H-[1,2,4]triazolo[4,3-a]pyrazin-7-yl)-thieno[2,3-d]pyrimidin-2-yloxy]-acetic acid] | 3700 | 826 |
| CCCc1cc2c(N3CCn4c(nnc4C(F)(F)F)C3)nc(N3CCC(CN)C3)nc2s1 (stereo not drawn) [Example 1-12, C-{1-[6-Propyl-4-(3-trifluoromethyl-5,6-dihydro-8H-[1,2,4]triazolo[4,3-a]pyrazin-7-yl)-thieno[2,3-d]pyrimidin-2-yl]-pyrrolidin-3-yl}-methylamine] | 226 | 84 |
| CCCc1cc2c(N3CCn4c(nnc4C(F)(F)F)C3)nc(N3CCn4c(nnc4C(F)(F)F)C3)nc2s1 [Example 1-74, 7,7′-(6-propylthieno[2,3-d]pyrimidine-2,4-diyl)bis[3-(trifluoromethyl)-5,6,7,8-tetrahydro[1,2,4]triazolo[4,3-a]pyrazine]] | 40 | 33 |
| CCCc1cc2c(N3CCn4c(nnc4C(F)(F)F)C3)nc(N3CC[C@H](C(=O)NO)C3)nc2s1 [Example 1-89, (S)-1-[6-Propyl-4-(3-trifluoromethyl-5,6-dihydro-8H-[1,2,4]triazolo[4,3-a]pyrazin-7-yl)-thieno[2,3-d]pyrimidin-2-yl]-pyrrolidine-3-carboxylic acid hydroxyamide] | 12 | 55 |
| CCCc1cc2c(N3CCn4c(nnc4C(F)(F)F)C3)nc(NCC3CCN(Cc4ccccc4)C3)nc2s1 (stereo not drawn) [Example 1-11, (1-Benzyl-pyrrolidin-3-ylmethyl)-[6-propyl-4-(3-trifluoromethyl-5,6-dihydro-8H-[1,2,4]triazolo[4,3-a]pyrazin-7-yl)-thieno[2,3-d]pyrimidin-2-yl]-amine] | 1380 | 260 |
| CCCc1cc2c(N3CCn4c(nnc4C(F)(F)F)C3)nc(N3CC[C@H](C(=O)OCOC(=O)C(C)(C)C)C3)nc2s1 [Example 1-59, (S)-1-[6-Propyl-4-(3-trifluoromethyl-5,6-dihydro-8H-[1,2,4]triazolo[4,3-a]pyrazin-7-yl)-thieno[2,3-d]pyrimidin-2-yl]-pyrrolidine-3-carboxylic acid 2,2-dimethyl-propionyloxymethyl ester] | 1450 | 440 |
| CCCc1cc2c(N3CCn4c(nnc4C(F)(F)F)C3)nc(N3CC[C@H](O)C3)nc2s1 [Example 1-16, (S)-1-[6-Propyl-4-(3-trifluoromethyl-5,6-dihydro-8H-[1,2,4]triazolo[4,3-a]pyrazin-7-yl)-thieno[2,3-d]pyrimidin-2-yl]-pyrrolidin-3-ol] | 45 | 36 |
| CCCc1cc2c(N3CCn4c(nnc4C(F)(F)F)C3)nc(OCCNS(=O)(=O)C3CC3)nc2s1 [Example 3-68, Cyclopropanesulfonic Acid {2-[6-propyl-4-(3-trifluoromethyl-5,6-dihydro-8H-[1,2,4]triazolo[4,3-a]pyrazin-7-yl)-thieno[2,3-d]pyrimidin-2-yloxy]-ethyl}-amide] | 120 | 140 |
| CCCc1cc2c(N3CCn4c(nnc4C(F)(F)F)C3)nc(OC3Cc4ccccc4C3)nc2s1 [Example 3-22, 7-[2-(Indan-2-yloxy)-6-propyl-thieno[2,3-d]pyrimidin-4-yl]-3-trifluoromethyl-5,6,7,8-tetrahydro-[1,2,4]triazolo[4,3-a]pyrazine] |  | 130 |
